Values after ≈ are worked out from the molar mass of the structure shown. Active and inactive are the calls of the source. The rule behind the calls is not given here.
What was measured:
Jurkat [1] = experiment: Cytotoxicity against human Jurkat cells assessed as cell growth inhibition measured after 72 hrs by CCK8 assay; assay type: functional, cell-based
Caco-2 = experiment: Cytotoxicity against human Caco-2 cells assessed as cell growth inhibition measured after 72 hrs by CCK8 assay; assay type: functional, cell-based; conditions: Caco-2, 72 h
[2] = Cytotoxicity against human KPL-4 cells assessed as cell growth inhibition measured after 72 hrs by CCK8 assay; assay type: functional, cell-based; conditions: KPL4, 72 h
A549 = experiment: Cytotoxicity against human A549 cells assessed as cell growth inhibition measured after 72 hrs by CCK8 assay; assay type: functional, cell-based; conditions: A549, 72 h
[3] = Half life in human serum incubated up to 24 hrs by HPLC analysis; assay type: ADME, cell-free
Staphylococcus aureus = experiment: Antibacterial activity against methicillin-resistant Staphylococcus aureus; assay type: functional
Jurkat [4] = experiment: Antagonistic cytotoxicity against human Jurkat cells assessed as decrease in cell viability at 0.1 to 25 uM measured after 72 hrs in presence of vorinostat; assay type: functional, cell-based; conditions: dose 0.1-25 µM
Jurkat [5] = experiment: Induction of ROS generation in human Jurkat cells at 1 uM measured after 2 hrs by DCFH-DA staining based flourescence assay relative to H2O2; assay type: functional, cell-based
Jurkat [6] = experiment: Induction of ROS generation in human Jurkat cells at 5 uM measured after 4 hrs by DCFH-DA staining based flourescence assay relative to H2O2; assay type: functional, cell-based
Jurkat [7] = experiment: Induction of ROS generation in human Jurkat cells assessed as increase in intracellular ROS level measured after 4 hrs in presence of vorinostat; assay type: functional, cell-based

half-life [3] | SMILES | IC50 (Jurkat [1]) | IC50 (Caco-2) | IC50 [2] | IC50 (A549) | MIC (Staphylococcus aureus) | Activity (Jurkat [4]) | Activity (Jurkat [5]) | Activity (Jurkat [6]) | Activity (Jurkat [7])
 | CC12CC34C=CC(=O)[C@@](C)(CCC(=O)NNC(=O)c5ccc(NCc6cc(O)ccc6O)cc5)C3C(CC1C4)O2 (stereo not given in full) | > 100 µM | 65.2 µM | > 100 µM | > 100 µM |  |  |  |  | 
5 h | CC12CC34CC[C@H](O)[C@@](C)(CCCO)C3C(CC1C4)O2 (stereo not given in full) | 7.3 µM | 37.5 µM | 2.7 µM | 35.9 µM |  |  |  |  | 
 | C[C@]12C[C@@]34C=CC(=O)[C@@](C)(CCC(=O)Nc5c(O)ccc(C(=O)O)c5O)[C@@H]3[C@H](C[C@@H]1C4)O2 |  |  |  |  | 0.2 µg/mL (≈ 0.453 µM) |  |  |  | 
 | C[C@@]1(CCC(=O)Nc2c(O)ccc(C(=O)O)c2O)C(=O)C=CC23CC4CC(CC(C4)C21)C3 (stereo not given in full) |  |  |  |  | 1.3 µg/mL (≈ 2.96 µM) |  |  |  | 
3 h | COC(=O)c1ccc(NCc2cc(O)ccc2O)cc1 | 13.1 µM | 15.1 µM | 15.6 µM | 23.2 µM |  |  |  |  | 
12 h | O=C(OC12CC3CC(CC(C3)C1)C2)c1ccc(NCc2cc(O)ccc2O)cc1 | 3.1 µM | 8 µM | 4.6 µM | 20.1 µM |  | inactive | Active |  | 
12 h | CC12CC34CC[C@H](OC(=O)c5ccc(NCc6cc(O)ccc6O)cc5)[C@@](C)(CCCOC(=O)c5ccc(NCc6cc(O)ccc6O)cc5)C3C(CC1C4)O2 (stereo not given in full) | 5 µM | 7 µM | 7.7 µM | 9.6 µM |  | Active | Active | Active | Active
 | O=C(NNC(=O)C12CC3CC(CC(C3)C1)C2)c1ccc(NCc2cc(O)ccc2O)cc1 | 16 µM | > 100 µM | > 100 µM | > 100 µM |  |  |  |  | 
 | O=C(O)c1ccc(NCc2cc(O)ccc2O)cc1 | 20.4 µM | 49.8 µM | > 100 µM | > 100 µM |  |  |  |  | 
